Assay results: patent US20220380408A1, “COMPOSITIONS AND METHODS FOR INHIBITING NEOINTIMAL FORMATION” (University of Virginia Patent Foundation, priority 2019, published 2022)
Entries after “also recorded” stand apart in the source; their conditions may differ. Ends that are not written are not given here. * marks the point of attachment. Stearoyl = CCCCCCCCCCCCCCCCCC(=O)*

Tests used:
[1] = system: Human coronary artery smooth muscle cells; assay: EDU proliferation by flow cytometry in cultured human coronary artery smooth muscle cells; assay type: cell-based; conditions: for proliferation (EDU incorporation, flow cytometry): hCASMC incubated with agent for 48 hours (PGPC 100 μg, POVPC 100 μg, PDGF 20 ng)
Protocol: (§1) Protein expression and interaction in cultured human coronary artery smooth muscle cells. Human coronary artery smooth muscle cells (Thermo Fisher Scientific, Inc., Waltham, Massachusetts, United States of America), were cultured until confluent in M231 media containing growth supplement (Thermo Fisher Scientific, Low Serum Growth Supplement Kit (LSGS) kit) as well as 20% fetal bovine serum (FBS). Prior to incubations, media was switched to low serum media (M231+2% FBS) for 3 days as previously described (Lohman et al., 2016). Cells were then incubated with oxidized phospholipids 1-palmitoyl-2-glutaroyl-sn-glycero-3-phosphorylcholine (PGPC, 100 μg) and 1-palmitoyl-2-oxovaleroyl-sn-glycero-3-phosphorylcholine (POVPC 100 μg), or the growth factor platelet derived growth factor beta (PDGF, 20 ng) as we have previously described (Johnstone et al. 2009; Johnstone et al. 2012) for 48 hours prior to harvesting and analysis for Western blotting and co-immunoprecipitation and EDU proliferation by flow cytometry as previously described (Johnstone et al. 2012). For peptide incubations, peptides were pre-incubated for 30 minutes with cells in fresh media prior to adding any further treatments.
However, the ability to bind with, and therefore activate, cyclin D was inhibited in the presence of PGPC (see FIG. 2A). […] Taken together, this identified Cx43 phosphorylation status as a molecular switch that controlled cellular proliferation (MAPK-Cx43) or quiescence (PKC-Cx43), a model that is depicted in see FIG. 2C.
(§2) Peptides representing sequences within the C-terminus of human Cx43, designed by peptide array, inhibited proliferation of human smooth muscle cells (see FIGS. 3A-3F). Cells were pretreated for 30 minutes with peptides, prior to incubation with PDGF for 2 days.

[2] = system: triple negative breast cancer (Hs578T); assay: WST-1 (viability/MTT) assay of cancer cell proliferation, Hs578T; assay type: cell-based, human; conditions: single treatment 30 μM at day 0; versus control peptide
Protocol: (§3) Two cancer cell lines originating from human melanoma (A375-MA2) and triple negative breast cancer (Hs578T) were used to assess the role of CycliCx in inhibiting proliferation. 500 cells per well were cultured in a 96-well plate containing 100 μl of medium. The next day (Day 0), 30 μM of CycliCx peptide or control peptide was added to the cells. Starting from Day 0, 10 μl of WST-1 reagent (viability/MTT) was added to each well and incubated for 75 minutes. Absorbance was measured at 450 nm. Data are presented in FIGS. 6B (A375-MA2) and 6C (Hs578T) as mean±SEM. p<0.05 by two way ANOVA.

[3] = system: human saphenous vein tissues; assay: Ex vivo human saphenous vein explant model (HUSVEM); assay type: cell-based; conditions: PDGF 50 ng/mL, 14 days, peptide 30 μM, everolimus 10 nM
Protocol: Ex vivo, human saphenous vein explant model (HUSVEM). The translational relevance of the peptides was assessed in an ex vivo, human saphenous vein explant model (HUSVEM) based on previously validated protocols (Baker et al. 1997; Dreifaldt et al. 2013; Loesch, Dashwood & Souza, 2006; George et al., 1996). Briefly, human veins were obtained as excess tissue from coronary artery bypass surgeries. The protocol was assessed by the Institutional Review Board (IRB) of the University of Virginia (Charlottesville, Va., United States of America), and no IRB protocol was required. Human saphenous veins were opened laterally, cut into 10 mm sections, and pinned with the endothelial side facing up on SYLGARD® brand silicone curing agent-coated plates in RMPI media containing 2% FBS. After 1 hour, cells were incubated with either control peptide or CycliCx peptide (30 μM; LDPAKDCGDQKYAY; SEQ ID NO: 1) or everolimus (10 nM; Sigma Aldrich) for a further 60 minutes, prior to adding PDGF (50 ng/mL). Media was changed daily with fresh media containing peptides or everolimus and PDGF. At the end of 14 days media was removed and tissues fixed in 4% PFA for 24 hours then washed in 70% ethanol, prior to embedding in 3% agarose. Samples were then processed by routine paraffin embedding and stained using hematoxylin and eosin and van Gieson stains. Comparisons of neointmal growth were made, where the uppermost layer of elastin was used to identify the start region for formed neointima. Neointimal areas were calculated across 10 serial sections from each tissue and averaged. Analysis of PDGF treated vessels to peptide and everolimus treated tissues were made.
An exemplary CycliCx peptide (LDPAKDCGDQKYAY; SEQ ID NO: 1) was applied to human saphenous veins in ex vivo preparations for 2 weeks in the presence of PDGF and compared to everolimus, an agent used in drug eluting stents.

[4] = system: human melanoma (A375-MA2); assay: WST-1 (viability/MTT) assay of cancer cell proliferation, A375-MA2; assay type: cell-based; conditions: single treatment 30 μM at day 0; versus control peptide
Protocol: as §3

[5] = system: mouse carotid arteries; assay: Mouse carotid ligation neointimal formation model; assay type: in vivo; conditions: for Neointimal/media Ratio (±SEM): carotid ligation, 200 μg peptide in pluronic, 2 weeks
Protocol: Mouse carotid surgeries. Carotid ligation and pluronic application surgeries were performed as described (Johnstone et al. 2009; Johnstone et al. 2012). Briefly, mice were anesthetized by isoflurane and the left common carotid artery was exposed and carefully freed from surrounding tissue. A 6/0 silk suture was run under the carotid artery distal to the bifurcation site and two consecutive, flat square knots were tied tight enough to restrict blood flow. Control mice were surgical controls, where carotid artery was exposed and freed of surrounding tissue as described above but no suture was applied. Following ligation either 35% F127 pluronic gel, CycliCx peptide (200 μg in pluronic; LDPAKDCGDQKYAY; SEQ ID NO: 1) or control peptide (200 μg in pluronic; AYFNGCSSPTAPLDP; SEQ ID NO: 3) was applied to the outside of the carotid wall and surgical wound closed. At 2 weeks after surgery, mice were euthanized with an intraperitoneal injection of 60-90 mg/kg pentobarbital. Mice were perfused with 4% paraformaldehyde (PFA) and both treated (left common) and control (right common) carotids removed and stored in 4% PFA overnight for whole mount analysis or immunosectioning. For in vivo cell proliferation studies, mice were preinjected with 5-ethynyl-2′-deoxyuridine (EDU) prior to surgery and carotids were removed post-treatment for whole mount or tissue cross section analysis of EDU incorporation into proliferating cells. For analysis of neointima formation in vessels, areas corresponding to the media (containing vascular smooth muscle cells (VSMC)), neointima (containing proliferating VSMC) and lumen (void area) were measured on Haemotoxylin and Eosin (H&E) stained cross sections of carotid vessels and analyzed by Image J, image analysis software. The ratio of media:neointima was calculated.
An exemplary CycliCx peptide (LDPAKDCGDQKYAY; SEQ ID NO: 1) was applied to the carotids of mice for 14 days after placement of a suture to induce neointimal formation (FIG. 4A). In both ligation only and ligation with peptide, extensive neointima formed. […] Effects were tested in both male and female mice, and no sex-specific differences were noted (FIG. 4B and Table 1).

[6] = system: cyclin D; assay: Co-immunoprecipitation of Cx43 with cyclin D in human coronary artery smooth muscle cells; assay type: cell-based; conditions: hCASMC
Protocol: as §1
However, the ability to bind with, and therefore activate, cyclin D was inhibited in the presence of PGPC (see FIG. 2A). […]

[7] = biological target: T1, cyclin E (Homo sapiens, UniProt P24864); assay: Peptide array (truncation array) probed with cyclin E protein; assay type: binding; set-up: made in house; conditions: based on mouse Cx43 sequence; cyclin E 10 μg/mL overnight
Text: Peptide array. The C-terminus of the human Cx43 polypeptpide (Cx43-CT) is about 150 amino acids (a.a.) with a high abundance (>10%) of post-translationally modified sites (Aasen et al., 2018). This means that hundreds of combinations are required to delineate binding parameters. Using novel peptide array technology, the sites of interaction between connexin 43 (Cx43) and cyclin E were mapped. Immobilized peptide libraries corresponding to 25-residue regions of Cx43-CT were designed, synthesized, and nitrocellulose arrays generated. To test the requirement for phosphorylation, specific residues were replaced to mimic known protein interacting states (e.g., MAPK-Cx43 serines 255/262/279/282; see Johnstone et al. 2012). The role for phosphorylation was assayed in binding using single and multiple residue replacements. These included wild-type serine (S), native phospho-serine (pS), aspartate (D, phospho-mimic), or alanine (A, phospho-null) residues. Recombinant human cyclin E protein was generated for incubation with arrays (Johnstone et al. 2012). […] Signal was then detected using electrochemiluminescence (ECL) detection reagents as per manufacturer protocol (PIERCE™ brand, available from Thermo Fisher Scientific, Inc., Waltham, Mass., United States of America) and blots were scanned for analysis. […]

[8] = system: Cx43; assay: Western blot of Cx43 phosphorylation status in human coronary artery smooth muscle cells; assay type: cell-based; conditions: hCASMC
Protocol: as §1, §2

[9] = biological target: T1, cyclin E; assay: Co-immunoprecipitation of Cx43/cyclin E interaction in human SMC; assay type: cell-based; set-up: host or cells: human coronary artery smooth muscle cells; conditions: versus no peptide and scrambled peptide
Protocol: as §1
Peptides representing sequences within the C-terminus of human Cx43, designed by peptide array, inhibited proliferation of human smooth muscle cells (see FIGS. 3A-3F). […]

T1 sequence (P24864 whole entry, the tested form may be a part): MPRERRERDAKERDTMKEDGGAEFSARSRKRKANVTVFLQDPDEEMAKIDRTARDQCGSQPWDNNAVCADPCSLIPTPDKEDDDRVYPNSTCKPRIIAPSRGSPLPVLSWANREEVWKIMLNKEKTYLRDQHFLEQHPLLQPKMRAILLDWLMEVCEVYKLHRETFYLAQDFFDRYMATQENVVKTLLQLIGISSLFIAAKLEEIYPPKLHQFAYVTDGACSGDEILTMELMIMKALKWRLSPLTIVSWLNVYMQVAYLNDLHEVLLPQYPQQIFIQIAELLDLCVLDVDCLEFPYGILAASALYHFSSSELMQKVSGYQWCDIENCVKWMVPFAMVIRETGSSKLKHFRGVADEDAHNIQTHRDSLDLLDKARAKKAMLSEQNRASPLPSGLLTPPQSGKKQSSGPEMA

Molecule: stearate-LDPAKDCGDQKYAY (Stearoyl-LDPAKDCGDQKYAY) [CycliCx]
- EDU incorporation (proliferation) of human smooth muscle cells ([1]; peptide pretreatment 30 minutes, then PDGF for 2 days, versus PDGF alone or Scr peptide): reduced
- proliferation of Hs578T cells [2]: significantly inhibit proliferation
- neointimal formation in human saphenous veins [3]: inhibited neointimal formation; also recorded: completely inhibited
- proliferation of A375-MA2 cells [4]: significantly inhibit proliferation
- Neointimal/media Ratio (±SEM) ([5]; female mice): 0.0060 ± 0.0379
- Neointimal/media Ratio (±SEM) ([5]; male mice): 0.0110 ± 0.0055
- neointimal formation induced by suture ligation ([5]; mouse carotid, peptide applied for 14 days): completely inhibited; also recorded: prevented

Molecule: CO[C@H]1C[C@@H]2CC[C@@H](C)[C@@](O)(O2)C(=O)C(=O)N2CCCC[C@H]2C(=O)O[C@H]([C@H](C)C[C@@H]2CC[C@@H](OCCO)[C@H](OC)C2)CC(=O)[C@H](C)/C=C(\C)[C@@H](O)[C@@H](OC)C(=O)[C@H](C)C[C@H](C)/C=C/C=C/C=C/1C [everolimus, reference compound]
- neointimal formation in human saphenous veins [3]: inhibited neointimal formation

Molecule: CCCCCCCCCCCCCCCC(=O)OC[C@H](COP(=O)([O-])OCC[N+](C)(C)C)OC(=O)CCCC(=O)O [PGPC, 1-palmitoyl-2-glutaroyl-sn-glycero-3-phosphorylcholine, reference compound]
- proliferation (EDU incorporation, flow cytometry) [1]: decreased proliferation
- ability of Cx43 to bind with, and therefore activate, cyclin D [6]: inhibited

Molecule: CCCCCCCCCCCCCCCC(=O)OC[C@H](COP(=O)([O-])OCC[N+](C)(C)C)OC(=O)CCCC=O [POVPC, 1-palmitoyl-2-oxovaleroyl-sn-glycero-3-phosphorylcholine, reference compound]
- proliferation (EDU incorporation, flow cytometry) [1]: increased proliferation

Molecule: DPSKDCGDPKYAY
- sequence required for cyclin E binding in truncation-based array [7]: minimum sequence

Molecule: AYFNGCSSPTAPLDP [Control Pep, non-targeting control peptide, reference compound]
- neointimal formation in human saphenous veins [3]: neointima were identified
- Neointimal/media Ratio (±SEM) ([5]; female mice): 1.017 ± 0.3869
- Neointimal/media Ratio (±SEM) ([5]; male mice): 0.6690 ± 0.1111

Molecule: LDPSKDCGDPKYAY [pep3(mouse), CycliCx peptide with mouse Cx43 residues at positions 257 and 263]
- PKC-phosphorylated Cx43 species (western blot, pS368) [8]: predominantly induced
- phosphorylation status of Cx43 (western blot) [8]: altered
- phosphorylation status of Cx43 (western blot) ([8]; listed as pep3): significantly altered
- interactions with cyclin E (co-immunoprecipitation) [9]: significantly reduced

B1: platelet derived growth factor beta (protein, UniProt P01127 82-190, looked up)
Platelet-derived growth …: SLGSLTIAEPAMIAECKTRTEVFEISRRLIDRTNANFLVWPPCVEVQRCSGCCNNRNVQCRPTQVQLRPVQVRKIEIVRKKPIFKKATVTLEDHLACKCETVAAARPVT
notes: growth factor promoting MAPK phosphorylation of Cx43
- proliferation (EDU incorporation, flow cytometry) [1]: increased proliferation
